This is an account of results in patent US20060004197A1, “Sulfonamide-based compounds as protein tyrosine kinase inhibitors” (priority 2004, published 2006).

The IC50 is the concentration at which inhibition is half-maximal.

T1 sequence (P12931 whole entry): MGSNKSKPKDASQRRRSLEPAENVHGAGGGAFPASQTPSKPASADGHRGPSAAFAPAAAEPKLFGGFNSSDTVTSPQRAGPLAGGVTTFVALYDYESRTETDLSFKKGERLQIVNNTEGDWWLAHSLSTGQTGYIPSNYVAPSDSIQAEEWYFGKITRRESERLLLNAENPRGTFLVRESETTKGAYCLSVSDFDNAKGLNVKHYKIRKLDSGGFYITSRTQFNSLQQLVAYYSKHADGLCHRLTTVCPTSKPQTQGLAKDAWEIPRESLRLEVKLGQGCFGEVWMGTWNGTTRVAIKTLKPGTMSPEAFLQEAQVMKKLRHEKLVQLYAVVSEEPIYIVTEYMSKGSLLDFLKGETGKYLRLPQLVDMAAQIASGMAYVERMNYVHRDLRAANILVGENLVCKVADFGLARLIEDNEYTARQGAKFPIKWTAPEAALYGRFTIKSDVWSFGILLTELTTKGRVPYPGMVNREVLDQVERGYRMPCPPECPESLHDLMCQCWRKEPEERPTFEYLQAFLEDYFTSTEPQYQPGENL

One experiment addresses T1, Recombinant human Src (Homo sapiens, UniProt P12931).
T1 construct: made in house; host or cells: baculovirus-insect cell system
Put plainly: Src tyrosine kinase activity, poly E4Y / 32P-ATP phosphorylation assay. The experiment is classed as biochemical. The note with it: Table 2; compound at 15 ug/mL; read-out: % Inhibition at 15 ug/mL Src (%). The protocol: Recombinant human Src was expressed using the baculovirus-insect cell system and purified as published (Budde et al., 1993 and 2000).
The tyrosine kinase activity of Src, Csk and FGFr was determined using poly E4Y and ^32P-ATP. Briefly, enzymes were assayed in a reaction mixture consisting of 0.15 M EPPS-NaOH (pH 8.0) with 6 mM MgCl2, 0.2 mM γ^32P-ATP (0.2-0.4 mCi/μmol), 10% glycerol, 0.1% Triton X-100, and poly E4Y. Poly E4Y is a synthetic peptide whose phosphorylation is measured in this assay by the addition of the radioactively labeled phosphate from the ATP (Budde et al., 1995). […] When ATP was varied (0, 50, 100 and 250 μM), poly E4Y was kept constant at 150 μg/ml.
On to `Cc1ccc(S(=O)(=O)Nc2cc(N3CCSCC3)c([N+](=O)[O-])cc2NS(=O)(=O)c2ccc(C)cc2)cc1` [Compound 9c, N-[5-nitro-4-(thiomorpholin-4-yl)-2-(4-toluenesulfonylamino)-phenyl]-4-toluenesulfonamide], for which the inhibition at 15 µg/mL was 15%.

The experiment is the same for the next values; noted with them: Table 2; compound at 50 μg/mL (starred values); read-out: % Inhibition Src (%), * = assayed at 50 μg/mL.
Consider `Cc1ccc(S(=O)(=O)Nc2cc(N3CCOCC3)c([N+](=O)[O-])cc2NS(=O)(=O)c2ccc(C)cc2)cc1` [Compound 9a, N-[4-(morpholin-4-yl)-5-nitro-2-(4-toluenesulfonylamino)-phenyl]-4-toluenesulfonamide], for which the inhibition at 50 µg/mL was determined as 13%.

The same experiment, now with this note: Table 3, Formula II compounds; NI = no inhibition at 100 μg/mL.
With `C=CCc1c(OCc2ccc(OC)cc2)ccc(NS(=O)(=O)c2ccc(C)cc2)c1NS(=O)(=O)c1ccc(C)cc1` [Compound 15a, N-[3-allyl-4-(4-methoxy-benzyloxy)-2-(4-toluenesulfonylamino)-phenyl]-4-toluenesulfonamide], the 50% inhibitory concentration (IC50) was determined as 212 µM.

Consider `COc1ccc(Oc2ccc(NS(=O)(=O)c3ccc(C)cc3)c(NS(=O)(=O)c3ccc(Br)s3)c2)cc1` [Compound 22gg, 5-bromo-N-[5-(4-methoxy-phenoxy)-2-(4-toluenesulfonylamino)-phenyl]-thiophene-2-sulfonamide], for which the concentration for half-maximal inhibition (IC50) is 24 µM.

Turning to `COc1ccc(Oc2ccc(NS(=O)(=O)c3sc(NC(C)=O)nc3C)c(NS(=O)(=O)c3ccc(C)cc3)c2)cc1` [Compound 22q, N-{5-[4-(4-methoxy-phenoxy)-2-(4-toluenesulfonylamino)-phenylsulfamoyl]-4-methyl-thiazol-2-yl}-acetamide], the IC50 was determined as 154 µM.

With `COc1ccc(Oc2ccc(NS(=O)(=O)c3c(C)noc3C)c(NS(=O)(=O)c3ccc(C)cc3)c2)cc1` [Compound 22r, 3,5-dimethyl-N-[4-(4-methoxy-phenoxy)-2-(4-toluenesulfonylamino)-phenyl]-isoxazole-4-sulfonamide], the IC50 turned out to be 335 µM.

The same experiment, now with this note: Table 3; compound at 15 μg/mL; read-out: % Inhibition at 15 μg/mL Src (%).
As to `Cc1ccc(S(=O)(=O)Nc2ccc(C(=NO)c3ccccc3)cc2NS(=O)(=O)c2ccc(C)cc2)cc1` [Compound 22jj, N-[4-(hydroxyimino-phenyl-methyl)-2-(4-toluenesulfonylamino)-phenyl]-4-toluenesulfonamide], the inhibition at 15 µg/mL was found to be 16%.

For the molecule `Cc1ccc(S(=O)(=O)Nc2ccc(SCc3ccccc3Cl)cc2NS(C)(=O)=O)cc1` [Compound 22nn, N-[4-(2-chloro-benzylsulfanyl)-2-methanesulfonylamino-phenyl]-4-toluenesulfonamide], the inhibition at 15 µg/mL came out at 21%.

Turning to `COc1ccc(Oc2ccc(NS(=O)(=O)c3ccc(C)cc3)c(NS(=O)(=O)c3c(C)noc3C)c2)cc1` [Compound 22n, 3,5-dimethyl-N-[5-(4-methoxy-phenoxy)-2-(4-toluenesulfonylamino)-phenyl]-isoxazole-4-sulfonamide], the inhibition at 15 µg/mL is 5%.

For the molecule `CON=C(c1ccccc1)c1ccc(NS(=O)(=O)c2ccc(C)cc2)c(NS(=O)(=O)c2ccc(C)cc2)c1` [Compound 22kk, N-[4-(methoxyimino-phenyl-methyl)-2-(4-toluenesulfonylamino)-phenyl]-4-toluenesulfonamide], the inhibition at 15 µg/mL was 23%.

Still in this experiment, the particulars now being: compound at 15 μg/mL; read-out: % Inhibition at 15 μg/mL Src %.
As to `Cc1ccc(S(=O)(=O)Nc2ccc(S(=O)(=O)Cc3ccccc3Cl)cc2NS(=O)(=O)c2ccc(C)cc2)cc1` [Compound 71nn, N-[4-(2-chloro-phenylmethanesulfonyl)-2-(4-toluenesulfonylamino)-phenyl]-4-toluenesulfonamide], the inhibition at 15 µg/mL is 46%.

Take `COc1ccc(Oc2ccc(NC(=O)c3ccc(C#N)nc3)c(NS(=O)(=O)c3ccc(C)cc3)c2)cc1` [Compound 71b, 6-cyano-N-[4-(4-methoxy-phenoxy)-2-(4-toluenesulfonylamino)-phenyl]-nicotinamide]: the inhibition at 15 µg/mL turned out to be 0%.

`COc1ccc(OCc2ccc(C(N)=O)c(NS(=O)(=O)c3ccc(C)cc3)c2)cc1` [Compound 71v, 4-(4-methoxy-phenoxymethyl)-2-(4-toluenesulfonylamino)-benzamide]: the inhibition at 15 µg/mL amounted to 10%.

In the case of `COc1ccc(OCc2ccc(CN)c(NS(=O)(=O)c3ccc(C)cc3)c2)cc1` [Compound 71w, N-[2-aminomethyl-5-(4-methoxy-phenoxymethyl)-phenyl]-4-toluenesulfonamide], the inhibition at 15 µg/mL was determined as 9%.

For `COc1ccc(Oc2ccc(NCc3ccc(C)cc3)c(NS(=O)(=O)c3ccc(C)cc3)c2)cc1` [Compound 71jj, N-[5-(4-methoxy-phenoxy)-2-(4-methyl-benzylamino)-phenyl]-4-toluenesulfonamide], the inhibition at 15 µg/mL was found to be 19%.

In the case of `COc1ccc(OCc2ccc(CNC(=O)c3ccc(C)cc3)c(NS(=O)(=O)c3ccc(C)cc3)c2)cc1` [Compound 71ff, N-[4-(4-methoxy-phenoxymethyl)-2-(4-toluenesulfonylamino)-benzyl]-4-toluamide], the inhibition at 15 µg/mL was 4%.

Consider `CCc1ccc(NS(=O)(=O)c2ccc(OC)cc2NS(=O)(=O)c2ccc(C)cc2)cc1` [Compound 71mm, N-(4-ethyl-phenyl)-4-methoxy-2-(4-toluenesulfonylamino)-benzenesulfonamide], for which the inhibition at 15 µg/mL is 19%.

As for `COc1ccc(Oc2ccc(NCc3ccc4ccccc4n3)c(NS(=O)(=O)c3ccc(C)cc3)c2)cc1` [Compound 71g, N-{5-(4-methoxy-phenoxy)-2-[(quinolin-2-ylmethyl)-amino]-phenyl}-4-toluenesulfonamide], the inhibition at 15 µg/mL was 10%.

For `COc1ccc(OCc2ccc(CNS(C)(=O)=O)c(NS(=O)(=O)c3ccc4cc(C)ccc4c3)c2)cc1` [Compound 71x, N-[2-(methanesulfonylamino-methyl)-5-(4-methoxy-phenoxymethyl)-phenyl]-6-methyl-naphthalene-2-sulfonamide], the inhibition at 15 µg/mL worked out at 20%.

Staying with this experiment, now noted: poly E4Y / 32P-ATP; Formula IV compounds.
Turning to `COc1ccc(Oc2ccc(NS(=O)(=O)c3ccc(C)cc3)c(N)c2)cc1` [Compound 71l, N-[2-amino-4-(4-methoxy-phenoxy)-phenyl]-4-toluenesulfonamide], the IC50 came out at 62 µM.

For the molecule `COc1ccc(Oc2ccc(NCc3ccc(C#N)cc3)c(NS(=O)(=O)c3ccc(C)cc3)c2)cc1` [Compound 71d, N-[2-(4-cyano-benzylamino)-5-(4-methoxy-phenoxy)-phenyl]-4-toluenesulfonamide], the IC50 stood at 557 µM.

Regarding `COc1ccc(Oc2ccc(NC(=O)c3ccc(C)cc3)c(NS(=O)(=O)c3ccc(C)cc3)c2)cc1` [Compound 71r, N-[4-(4-methoxy-phenoxy)-2-(4-toluenesulfonylamino)-phenyl]-4-toluamide], the IC50 was found to be 159 µM.

As to `COc1ccc(Oc2ccc(NCc3cc4ccccc4o3)c(NS(=O)(=O)c3ccc(C)cc3)c2)cc1` [Compound 71f, N-[2-[(benzofuran-2-ylmethyl)-amino]-5-(4-methoxy-phenoxy)-phenyl]-4-toluenesulfonamide], the IC50 worked out at 627 µM.

As to `Cc1ccc(S(=O)(=O)Nc2ccc(NC(=O)c3ccccc3)cc2N(C(=O)c2ccccc2)S(=O)(=O)c2ccc(C)cc2)cc1` [Compound 71o, N-[3-[benzoyl-(4-toluenesulfonyl)-amino]-4-(4-toluenesulfonylamino)-phenyl]-benzamide], the IC50 worked out at 39 µM.

As for `COc1ccc(Oc2ccc(NS(=O)(=O)c3ccc(C)cc3)c(CNS(=O)(=O)c3ccc(C)cc3)c2)cc1` [Compound 71m, N-[4-(4-methoxy-phenoxy)-2-(4-toluenesulfonylamino-methyl)-phenyl]-4-toluenesulfonamide], the IC50 was determined as 136 µM.
